Assay results from publication PMC10927086, “Effects of structurally distinct human HDAC6 and HDAC6/HDAC8 inhibitors against S. mansoni larval and adult worm stages” (PLOS Neglected Tropical Diseases, 2024).

Key:
SmHDAC8 = molecular target: T1, SmHDAC8 (Schistosoma mansoni, UniProt A5H660); experiment: Recombinant SmHDAC8 inhibition assay (Fluor de Lys); type: biochemical; conditions: Fluor-de-Lys substrate 50 μM, inhibitor 25-0.04 μM, average of three experiments ± SD
T1 construct: made in house; host or cells: E. coli
T1 sequence (A5H660 1-440): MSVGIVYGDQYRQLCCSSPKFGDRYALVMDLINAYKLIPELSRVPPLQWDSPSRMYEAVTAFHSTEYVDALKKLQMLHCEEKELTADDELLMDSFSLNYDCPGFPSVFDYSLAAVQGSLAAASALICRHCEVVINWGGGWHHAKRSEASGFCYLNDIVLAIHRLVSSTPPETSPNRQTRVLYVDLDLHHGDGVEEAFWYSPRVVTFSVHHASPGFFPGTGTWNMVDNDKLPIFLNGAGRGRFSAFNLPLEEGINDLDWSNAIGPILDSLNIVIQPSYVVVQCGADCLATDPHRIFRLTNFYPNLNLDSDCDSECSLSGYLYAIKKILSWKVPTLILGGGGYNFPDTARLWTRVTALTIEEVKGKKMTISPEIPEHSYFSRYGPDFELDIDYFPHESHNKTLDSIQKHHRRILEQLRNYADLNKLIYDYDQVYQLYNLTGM
Description: SmHDAC8 protein was produced and purified by a method previously described by us. Inhibition assays of SmHDAC8 were performed as already described in previous publications. Briefly, the commercial Fluor de Lys kit (BML-KI178) of Enzo Life Science was used for testing the residual activity of the recombinant enzyme upon preincubation with each of the selected compounds. First the enzyme was preincubated with the selected compounds 15 min before substrate addition to the mixture. The Fluor de Lys substrate was used at 50 μM. Then, compounds, substrate, and enzyme were incubated together, and the reaction was allowed to proceed for 1 h at 30°C; subsequently, 2 μM TSA within 50 μL of 1× Developer II was added, and the mixture was further incubated for 1 h at 30°C to quench the reaction. Fluorescence was measured in a plate reader (Varioskan Lux, Thermo Fisher Scientific) with excitation at λ = 370 nm and emission at λ = 450 nm.

[1] = set-up: method as in earlier work; conditions: QikProp, ref [25], cited from earlier work; for %HOA predicted human oral absorption: 0 to 100% scale, >80% high; for QPlogS predicted aqueous solubility: log value, recommended -6.5-0.5; for SASA predicted total solvent accessible surface: recommended 300-1000, in Å2 (unit assumed); for QPlogP predicted octanol/water partition coefficient: recommended -2-6.5
[2] = MTT cytotoxicity assay on BJ fibroblasts; type: cell-based; conditions: human, BJ fibroblast cells, compounds 100-0.78 μM, GA 10-0.078 μM, 2 independent experiments
Description: The NCTC clone 929 (L-929) murine fibroblast isolated from subcutaneous connective tissue (ATCC-CCL-1) were cultured in Dulbecco’s Modified Eagle Medium (DMEM) supplemented with 10 mM Hepes (pH 6.98–7.30), 1 mM l-glutamine, 100 U/ml of penicillin/streptomycin (BioWhittaker, Lonza, EuroClone SpA), and heat-inactivated 10% FBS. All cells were cultured at 37°C in a 5% CO2 humidified incubator.
The MTT method was employed as previously described to determine the viability of fibroblast cell lines. Briefly, cells seeded into 96-well plates at a density of 20,000 cells/well after overnight incubation, were exposed to selected compounds at the indicated concentrations for 24–72 h. Next they were gently washed, incubated with MTT (bromuro di 3-(4,5-dimetiltiazol-2-il)-2,5-diphenyltetrazolium) for 4 h, and processed for color detection with DMSO. The resulting purple solution was spectrophotometrically measured at 570 nm using a Varioskan Lux instrument and Skanit software (Thermo Fisher Scientific).
The optical density values for both assays were expressed as a percentage of cell survival and normalized with the value of cells treated with vehicle (DMSO), and the data were analyzed using GraphPad Prism v9.5.1 software (San Diego, CA, USA).
The cytotoxicity of the hit compounds was assessed in two independent experiments on murine L929 and human BJ fibroblasts at 24 h by MTT assays. Vehicle (DMSO) and Gambogic acid (GA) were used as negative and positive control respectively. The compounds show a safe profile on both cell lines (S2 Table).
The IC50(μM) shown was calculated by dose-response curves of the compounds on murine L929 and human BJ fibroblast cells. […] The data are representative of 2 independent experiments. Gambogic acid (GA) and vehicle (DMSO) were used as positive and negative controls respectively. (DOCX)

hHDAC6 = conditions: recombinant enzyme, previously reported; ref [25]; cited from earlier work
[3] = test system: S. mansoni newly transformed schistosoma (NTS); experiment: ATP-based luminescence (CellTiter-GLO) viability assay on NTS; type: cell-based
Description: Fig 3 Schistosome viability assays. Panel A: Representative dose-response curves of the inhibitors on NTS. The y-axis indicates the percentage of viability normalized against DMSO (100%) and gambogic acid 10 μM (0%). […] Panel B: dose-response curve of the inhibitors on adult schistosome worm pairs. DMSO (vehicle) was used as negative control (100% viability), the indicated compounds were assayed at 5 (full triangle) 10 (inverted full triangle), 20 (full square) and 50 μM (full circle). Data are expressed as a % severity score (viability) relative to DMSO. Each point represents the average ± standard deviation of three independent experiments.

Caco-2 cell = test system: Caco-2 cell; set-up: method as in earlier work; conditions: QikProp; >500 great; ref [25]; cited from earlier work

Structure (SMILES) | IC50 (SmHDAC8) | %HOA predicted human oral absorption [1] | QPlogS predicted aqueous solubility [1] | SASA predicted total solvent accessible surface [1] | QPlogP predicted octanol/water partition coefficient [1] | IC50 at 24 h [2] | IC50 (hHDAC6) | Normalization: NTS viability normalized against DMSO (100%) and GA (0%) ([3]; log conc. (µM) 1.4, 72 h, single wells) | QPPCaco predicted apparent Caco-2 cell permeability (Caco-2 cell) | LD50 on NTS, average +/- SD ([3]; 72 h, 0.7-100 μM, three experiments)
CCN(CC)Cc1ccc(Cn2c(=O)c(OCc3ccc(C(=O)NO)cc3)c(-c3cccnc3)c3ccccc32)cc1 [NF2838] | 400 ± 30 nM | 64.57% | -4.58 mol/dm^3 | 849.77 | 3.29 | > 100000 nM | 11.5 ± 1.5 nM | 107.9% | 5.607 ×10⁻⁶ cm/s | 
Cn1c(=O)c(OCc2ccc(C(=O)NO)cc2)c(C2CCCCC2)c2ccccc21 [NF2836] | 2300 ± 800 nM | 87.94% | -5.04 mol/dm^3 | 684.14 | 3.01 | > 100000 nM | 33 ± 2.6 nM |  | 26.454 ×10⁻⁶ cm/s | 31.2 ± 11.3 µM
